{"source": "ChEMBL document CHEMBL1201862", "about": "“PubChem BioAssay data set” (2004)", "key": {"[1]": {"molecular_target": "T1, Adenosylmethionine-8-amino-7-oxononanoate aminotransferase (Mycobacterium tuberculosis, UniProt P9WQ81)", "T1 sequence (P9WQ81 whole entry)": "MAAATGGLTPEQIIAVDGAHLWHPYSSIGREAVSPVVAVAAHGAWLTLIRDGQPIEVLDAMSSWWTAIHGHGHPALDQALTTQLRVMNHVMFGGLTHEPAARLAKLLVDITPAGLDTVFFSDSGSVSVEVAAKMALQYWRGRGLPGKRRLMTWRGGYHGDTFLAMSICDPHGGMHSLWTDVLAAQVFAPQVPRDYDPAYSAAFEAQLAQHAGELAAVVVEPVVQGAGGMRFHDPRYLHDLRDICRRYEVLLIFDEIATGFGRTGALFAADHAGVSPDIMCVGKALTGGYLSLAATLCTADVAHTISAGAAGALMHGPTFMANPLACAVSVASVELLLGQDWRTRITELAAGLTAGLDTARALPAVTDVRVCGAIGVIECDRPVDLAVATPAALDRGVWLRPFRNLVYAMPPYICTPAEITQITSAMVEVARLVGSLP", "test": "Mycobacterium tuberculosis BioA enzyme inhibitor Measured in Biochemical System Using Plate Reader - 2163-02_Inhibitor_Dose_CherryPick_Activity.", "type": "functional, Mycobacterium tuberculosis UT205"}, "[2]": {"molecular_target": "Glucose-6-phosphate 1-dehydrogenase (Homo sapiens, UniProt P11413)", "sequence (P11413 whole entry)": "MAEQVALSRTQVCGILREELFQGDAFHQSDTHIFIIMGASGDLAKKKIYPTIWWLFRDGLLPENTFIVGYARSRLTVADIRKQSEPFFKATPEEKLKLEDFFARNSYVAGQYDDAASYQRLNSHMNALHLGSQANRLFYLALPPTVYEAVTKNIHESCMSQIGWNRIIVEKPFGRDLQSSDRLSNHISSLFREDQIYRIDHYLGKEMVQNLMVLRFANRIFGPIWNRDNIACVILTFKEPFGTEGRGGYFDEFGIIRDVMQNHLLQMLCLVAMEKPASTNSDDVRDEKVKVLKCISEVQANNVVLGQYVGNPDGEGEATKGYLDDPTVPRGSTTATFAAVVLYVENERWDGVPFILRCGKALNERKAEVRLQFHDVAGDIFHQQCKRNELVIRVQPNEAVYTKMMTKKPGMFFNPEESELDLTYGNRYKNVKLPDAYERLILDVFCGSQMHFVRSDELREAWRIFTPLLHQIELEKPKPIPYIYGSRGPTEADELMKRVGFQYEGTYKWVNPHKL", "test": "human G6PD enzyme inhibitors, dose response, selectivity assay for P. falciparum G6PD inhibitor project, biochemical, fluorescence (AID 504792)", "type": "functional"}, "[3]": {"test": "Counterscreen for activators of the function of SWI/SNF related, matrix associated, actin dependent regulator of chromatin, subfamily a, member 2 (SMARCA2, BRM): Luminescence-based cell-based high throughput dose response assay to identify non-selective compounds using the VP16 reporter assay.", "type": "functional"}, "[4]": {"molecular_target": "SWI/SNF-related matrix-associated actin-dependent regulator of chromatin subfamily A member 2 (Homo sapiens, UniProt P51531)", "sequence (P51531 whole entry)": "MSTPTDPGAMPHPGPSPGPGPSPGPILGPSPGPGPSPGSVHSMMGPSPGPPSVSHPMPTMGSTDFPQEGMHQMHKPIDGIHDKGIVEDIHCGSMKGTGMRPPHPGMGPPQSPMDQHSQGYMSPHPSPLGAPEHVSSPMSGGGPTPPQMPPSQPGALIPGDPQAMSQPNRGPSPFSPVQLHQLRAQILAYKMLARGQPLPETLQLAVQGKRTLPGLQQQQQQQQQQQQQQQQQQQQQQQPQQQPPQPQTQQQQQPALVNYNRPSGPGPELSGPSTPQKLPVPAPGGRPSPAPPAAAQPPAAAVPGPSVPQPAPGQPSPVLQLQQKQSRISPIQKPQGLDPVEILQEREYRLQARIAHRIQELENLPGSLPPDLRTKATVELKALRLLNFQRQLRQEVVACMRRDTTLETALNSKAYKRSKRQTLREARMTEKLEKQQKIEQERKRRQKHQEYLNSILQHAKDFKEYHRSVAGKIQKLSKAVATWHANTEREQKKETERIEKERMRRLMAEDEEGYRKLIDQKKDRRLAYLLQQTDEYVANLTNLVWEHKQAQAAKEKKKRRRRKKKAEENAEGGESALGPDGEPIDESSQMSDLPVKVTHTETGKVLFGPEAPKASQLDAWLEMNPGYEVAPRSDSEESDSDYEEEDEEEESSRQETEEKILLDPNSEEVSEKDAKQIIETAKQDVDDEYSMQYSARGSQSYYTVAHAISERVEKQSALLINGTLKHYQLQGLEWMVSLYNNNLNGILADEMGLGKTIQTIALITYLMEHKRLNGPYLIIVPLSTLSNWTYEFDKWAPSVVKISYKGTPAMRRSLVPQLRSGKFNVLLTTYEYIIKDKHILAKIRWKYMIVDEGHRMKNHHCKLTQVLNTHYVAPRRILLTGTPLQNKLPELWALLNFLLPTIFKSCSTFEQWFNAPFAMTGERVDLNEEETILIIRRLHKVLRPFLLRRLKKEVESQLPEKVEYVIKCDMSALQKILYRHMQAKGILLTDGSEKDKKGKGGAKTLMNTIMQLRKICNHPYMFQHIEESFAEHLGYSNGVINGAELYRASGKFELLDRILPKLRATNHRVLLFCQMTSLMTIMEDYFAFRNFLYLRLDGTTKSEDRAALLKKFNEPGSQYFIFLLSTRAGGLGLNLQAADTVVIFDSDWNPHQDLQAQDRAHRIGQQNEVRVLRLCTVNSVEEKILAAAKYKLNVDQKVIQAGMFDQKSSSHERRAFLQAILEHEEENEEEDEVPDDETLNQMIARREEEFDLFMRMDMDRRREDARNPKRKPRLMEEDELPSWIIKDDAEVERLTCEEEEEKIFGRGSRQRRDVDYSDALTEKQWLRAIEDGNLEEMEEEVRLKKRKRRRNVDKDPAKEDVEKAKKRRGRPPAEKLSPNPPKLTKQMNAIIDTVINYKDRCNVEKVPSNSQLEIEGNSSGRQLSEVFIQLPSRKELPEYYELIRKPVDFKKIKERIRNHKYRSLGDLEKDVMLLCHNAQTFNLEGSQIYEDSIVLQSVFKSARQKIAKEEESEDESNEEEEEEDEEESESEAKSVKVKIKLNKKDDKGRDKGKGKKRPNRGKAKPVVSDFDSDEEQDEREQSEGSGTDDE", "test": "Luminescence-based cell-based high throughput dose response assay to identify activators of the function of SWI/SNF related, matrix associated, actin dependent regulator of chromatin, subfamily a, member 2 (SMARCA2, BRM).", "type": "functional"}, "[5]": {"test": "NIH-3T3 fibroblast cytotoxicity, dose response, cytotoxicity control, cell-based, fluorescence, Alamar Blue, secondary assay (AID 2327);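 note: NIH-3T3 mouse fibroblasts cultured with fluconazole at 8 µg/mL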", "type": "functional"}, "[6]": {"test": "C. albicans growth with fluconazole, confirmation, fluorescence, retest (AID 2467)", "type": "functional, cell-based"}, "[7]": {"test": "cytotoxicity in HEK-293T cells, dose response, cytotoxicity control for TCR NF-kB inhibitor project, luminescence, T-cell screen hits (AID 489026);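 note: cells exposed to compound about 14 hours before the viability readout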", "type": "functional, cell-based"}, "[8]": {"molecular_target": "T2, DNA repair protein RAD52 homolog (Homo sapiens, UniProt P43351)", "T2 sequence (P43351 whole entry)": "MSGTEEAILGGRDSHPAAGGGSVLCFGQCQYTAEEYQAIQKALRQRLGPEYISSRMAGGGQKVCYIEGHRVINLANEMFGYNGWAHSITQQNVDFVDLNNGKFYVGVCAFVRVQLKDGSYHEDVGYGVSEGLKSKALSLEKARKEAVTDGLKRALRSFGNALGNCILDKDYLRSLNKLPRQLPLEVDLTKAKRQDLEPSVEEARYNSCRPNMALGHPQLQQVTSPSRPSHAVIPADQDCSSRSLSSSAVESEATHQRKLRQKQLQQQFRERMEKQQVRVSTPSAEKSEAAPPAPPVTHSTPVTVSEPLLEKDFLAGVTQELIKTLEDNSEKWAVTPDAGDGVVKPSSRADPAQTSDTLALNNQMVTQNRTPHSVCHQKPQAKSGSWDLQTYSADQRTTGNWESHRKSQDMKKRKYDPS", "type": "functional, biochemical"}, "INS1": {"system": "INS1", "test": "beta cell apoptosis inhibitors, cytokine rescue, dose response, luminescence, retest (AID 449756);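 note: cell death triggered by IL-1 beta plus TNF-alpha plus IFN-gamma mixture; protective hits raise ATP signal compared with cytokine alone wells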", "type": "functional, cell-based", "settings": "Rattus norvegicus"}, "Vero [9]": {"system": "Vero", "test": "cells", "type": "functional", "settings": "Chlorocebus sabaeus"}, "Vero [10]": {"system": "Vero", "test": "cells", "type": "functional, cell-based", "settings": "Chlorocebus sabaeus"}, "[11]": {"molecular_target": "5-hydroxytryptamine receptor 2A (Mus musculus, UniProt P35363)", "sequence (P35363 whole entry)": "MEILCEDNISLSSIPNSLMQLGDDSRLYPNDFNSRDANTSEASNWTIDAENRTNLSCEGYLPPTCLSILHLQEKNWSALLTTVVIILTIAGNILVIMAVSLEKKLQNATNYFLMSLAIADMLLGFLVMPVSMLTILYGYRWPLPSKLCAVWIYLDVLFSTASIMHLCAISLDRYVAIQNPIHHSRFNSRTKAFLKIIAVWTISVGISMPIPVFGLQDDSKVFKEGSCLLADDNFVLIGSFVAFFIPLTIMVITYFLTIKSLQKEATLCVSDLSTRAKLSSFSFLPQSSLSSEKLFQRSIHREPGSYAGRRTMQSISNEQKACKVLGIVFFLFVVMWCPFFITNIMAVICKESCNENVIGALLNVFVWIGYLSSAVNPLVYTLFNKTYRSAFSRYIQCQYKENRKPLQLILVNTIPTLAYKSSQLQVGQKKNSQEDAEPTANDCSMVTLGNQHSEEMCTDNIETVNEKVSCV", "type": "functional, cell-based"}, "Mu-type opioid receptor": {"molecular_target": "Mu-type opioid receptor (Homo sapiens, UniProt P35372)", "sequence (P35372 whole entry)": "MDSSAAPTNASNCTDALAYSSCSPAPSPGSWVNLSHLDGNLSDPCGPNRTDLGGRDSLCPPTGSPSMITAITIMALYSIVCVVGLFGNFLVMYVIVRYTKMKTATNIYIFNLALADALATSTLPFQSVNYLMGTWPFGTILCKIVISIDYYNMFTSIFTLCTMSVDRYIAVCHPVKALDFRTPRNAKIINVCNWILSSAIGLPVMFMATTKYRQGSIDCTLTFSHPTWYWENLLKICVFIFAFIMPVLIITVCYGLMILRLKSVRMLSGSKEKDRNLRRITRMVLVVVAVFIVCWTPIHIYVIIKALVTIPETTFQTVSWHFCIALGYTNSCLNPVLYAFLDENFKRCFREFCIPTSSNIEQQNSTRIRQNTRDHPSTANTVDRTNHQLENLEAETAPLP", "type": "functional, cell-based"}, "[12]": {"molecular_target": "T3, Sentrin-specific protease 8 (Homo sapiens, UniProt Q96LD8)", "T3 sequence (Q96LD8 whole entry)": "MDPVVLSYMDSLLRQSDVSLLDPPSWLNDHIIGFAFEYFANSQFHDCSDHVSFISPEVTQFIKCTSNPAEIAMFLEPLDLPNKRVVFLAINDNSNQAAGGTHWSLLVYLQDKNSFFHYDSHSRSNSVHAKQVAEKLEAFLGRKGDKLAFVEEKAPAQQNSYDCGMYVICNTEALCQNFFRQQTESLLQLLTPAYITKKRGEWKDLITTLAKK", "type": "functional"}, "[13]": {"test": "growth suppression of beta-catenin-knockout colon cells, dose response, cell-based, HCT116, human colon tumor (AID 1045);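 note: HCT116 colon tumor cells with beta catenin knocked out; cells exposed to compound for 60 hours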", "type": "functional"}, "[14]": {"test": "growth suppression of PTEN-null colon cells, dose response, cell-based, HCT116 PTEN knockout (AID 1047);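 note: HCT116 colon tumor cells with PTEN knocked out; cells exposed to compound for 60 hours before readout; potency for loss of cell viability measured by luminescence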", "type": "functional"}, "[15]": {"molecular_target": "T3, Sentrin-specific protease 8", "type": "functional", "remark": "listed apart in the source"}, "[16]": {"molecular_target": "Heat shock protein HSP 90-alpha (Homo sapiens, UniProt P07900)", "type": "functional, organism-based"}, "[17]": {"test": "AlphaScreen signal interference compounds, dose response, artefact control for ARNT-TACC3 interaction inhibitor project, biochemical, luminescence, cherry-pick (AID 651705);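 note: AlphaScreen bead proximity signal that flags compounds interfering with the detection technology; potency reflects signal decrease which marks the compound as an assay artifact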", "type": "functional"}, "[18]": {"molecular_target": "T4, Ubiquitin-conjugating enzyme E2 N (Homo sapiens, UniProt P61088)", "T4 sequence (P61088 whole entry)": "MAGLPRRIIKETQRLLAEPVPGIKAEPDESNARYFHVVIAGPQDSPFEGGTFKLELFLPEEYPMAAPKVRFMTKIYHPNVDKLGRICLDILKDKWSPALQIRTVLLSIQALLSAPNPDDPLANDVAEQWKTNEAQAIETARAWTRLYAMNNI", "type": "functional"}, "Bcl-2-related protein A1": {"molecular_target": "T5, Bcl-2-related protein A1 (Mus musculus, UniProt Q07440)", "T5 sequence (Q07440 whole entry)": "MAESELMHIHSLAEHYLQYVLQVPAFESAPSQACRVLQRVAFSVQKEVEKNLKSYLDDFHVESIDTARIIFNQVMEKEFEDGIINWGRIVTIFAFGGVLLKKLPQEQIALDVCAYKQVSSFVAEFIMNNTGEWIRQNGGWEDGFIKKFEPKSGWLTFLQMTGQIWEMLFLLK", "type": "functional"}, "[19]": {"test": "HEp-2 cell cytotoxicity, dose response, cytotoxicity control for RSV inhibitor project, HTS (AID 2410)", "type": "functional", "settings": "human respiratory syncytial virus"}, "[20]": {"molecular_target": "T4, Ubiquitin-conjugating enzyme E2 N", "type": "functional", "remark": "listed apart in the source"}, "HEK293": {"system": "HEK293", "test": "inhibitors of LMP1-driven NF-kB reporter, dose response, cell-based, HEK293, luciferase, cherry-pick (AID 588343)", "type": "functional", "settings": "Homo sapiens"}}, "note": "Active and inactive are the calls of the source."}
{"molecule": "CC1CCCN(c2ccc(C(=O)Nc3cccnc3)cc2[N+](=O)[O-])C1", "note": "(stereo unspecified)", "values": [{"measurement": "AC50", "setting": "[1]", "result": "1.11 µM (active)"}]}
{"molecule": "C[C@H](CO)N1C[C@H](C)[C@@H](CN(C)C(=O)Nc2ccc(C(F)(F)F)cc2)Oc2c(cccc2N(C)C)C1=O", "values": [{"measurement": "IC50", "setting": "[2]", "result": "> 80 µM (inactive)"}]}
{"molecule": "O=C(COC(=O)c1cccc(O)c1)c1ccccc1", "values": [{"measurement": "EC50", "setting": "[3]", "result": "> 91.1 µM (inactive)"}, {"measurement": "EC50", "setting": "[4]", "result": "> 91.1 µM (inactive)"}]}
{"molecule": "COc1cc(N)c2ncsc2c1", "values": [{"measurement": "IC50", "setting": "[2]", "result": "> 80 µM (inactive)"}]}
{"molecule": "CC(=O)c1ccc(C(=O)N2CCCC(CO)(Cc3ccccc3C)C2)s1", "note": "(stereo unspecified)", "values": [{"measurement": "AC50", "setting": "[1]", "result": "4.14 µM (active)"}]}
{"molecule": "CCCCCc1ccc(OCCCC[n+]2ccc(C)cc2)c(CCCCC)c1", "values": [{"measurement": "EC50", "setting": "[5]", "result": "> 160 µM (inactive)"}, {"measurement": "EC50", "setting": "[6]", "result": "0.516 µM (active)"}, {"measurement": "IC50", "setting": "[7]", "result": "58 µM (inactive)"}, {"measurement": "AC50", "setting": "[8]", "result": "21.7 µM (active)"}, {"measurement": "AC50", "setting": "INS1", "result": "1.92 µM (active)"}]}
{"molecule": "O=C(CNC(=O)c1cccc(S(=O)(=O)N2CCc3ccccc32)c1)Nc1ccccc1Br", "values": [{"measurement": "CC50", "setting": "Vero [9]", "result": "> 25 µM (active)"}, {"measurement": "IC50", "setting": "Vero [10]", "result": "16.9 µM (active)"}]}
{"molecule": "COc1ccc(C2/C=C\\CN(C(=O)C3CCCC3)CC(=O)N2Cc2ccc(F)cc2)cc1", "note": "(stereo unspecified)", "values": [{"measurement": "EC50", "setting": "[11]", "result": "76.1 µM (inactive)"}, {"measurement": "EC50", "setting": "Mu-type opioid receptor", "result": "92.5 µM (inactive)"}]}
{"molecule": "Cc1c(Cl)cccc1/N=C/c1ccc([N+](=O)[O-])s1", "values": [{"measurement": "IC50", "setting": "[12]", "result": "3.66 µM (active)"}, {"measurement": "EC50", "setting": "[13]", "result": "40.3 µM (active)"}, {"measurement": "EC50", "setting": "[14]", "result": "26.5 µM (active)"}, {"measurement": "IC50", "setting": "[15]", "result": "5.17 µM (active)"}, {"measurement": "AC50", "setting": "[16]", "result": "7.37 µM (active)"}]}
{"molecule": "CCOc1ccc(C(=O)CCNC(Cc2c[nH]cn2)C(=O)O)cc1", "note": "(stereo unspecified)", "values": [{"measurement": "AC50", "setting": "[17]", "result": "124 µM (active)"}]}
{"molecule": "CCc1ccc2nc(N(CCCN(C)C)C(=O)c3ccc(C(=O)c4ccccc4)cc3)sc2c1", "values": [{"measurement": "IC50", "setting": "[18]", "result": "13.2 µM (active)"}, {"measurement": "IC50", "setting": "Bcl-2-related protein A1", "result": "> 20 µM (inactive)"}, {"measurement": "CC50", "setting": "[19]", "result": "20.5 µM (active)"}, {"measurement": "IC50", "setting": "[20]", "result": "11.6 µM (active)"}]}
{"molecule": "Cc1ccc(C(=O)Nc2nnc(SCC(=O)N3CCCc4ccccc43)s2)cc1", "values": [{"measurement": "AC50", "setting": "HEK293", "result": "1.3 µM (active)"}]}
